Reference: patent publication US11779600B2, “Methods of treating or preventing alzheimer's disease and associated conditions” (CEDARS-SINAI MEDICAL CENTER, priority 2016, dated 2023)

How the values were obtained:
[1] = system: ADtg mice; test: Vascular cerebral amyloid angiopathy (CAA) score in ADtg mice; format: in vivo, mouse; conditions: ADtg mice (FIG. 12)
Description: ADtg mice (10 months old) received subcutaneous injections of GA [also known as Cop-1 and Copaxone®; 100 μg in phosphate-buffered saline (PBS)] or PBS alone (control group) twice a week for 1 week and then once a week for 8 weeks. For evaluation of innate immune infiltration to the brain by flow cytometry, 10-month-old ADtg mice received subcutaneous injections of GA (100 mg in PBS) or PBS alone twice a week for 1 week and then once a week for 3 weeks. At the end of the study, all mice were anaesthetized and then perfused with ice-cold PBS with 0.5 mM EDTA, after which their organs were collected and analyzed or fixed in 2.5% paraformaldehyde (Sigma-Aldrich), and cryoprotected with 30% sucrose for further histological analysis.
Following secondary antibody staining, the brain sections were stained with thioflavin-S(Thio-S, 1% w/v in 70% ethanol) (Sigma-Aldrich) for 10 min at room temperature, washed three times in 70% ethanol, and then washed once in distilled water, for 1 min each.

[2] = system: iNOS; test: iNOS expression in macrophages by quantitative ICC; format: cell-based, mouse; conditions: 24 hours treatment, then fAβ1-42 for 30 min; quantitative ICC (FIG. 16D)
Description: (§1) To test amyloid-β phagocytosis by macrophage, in repeated experiments monocytes were isolated from the bone marrow of wild-type mice (n=18 mice) and differentiated into macro-phage by 7-day cultivation in complete RPMI-1640 medium (#21870; Life Technologies) with 10% serum and 20 ng/ml MCSF (#315-02; PeproTech). Bone marrow-derived macrophages (MΦBM) were generated from femurs and tibiae cultured for 6-7 days in complete RPMI 1640 medium (Life Technologies) with 10% FBS, 100 U/ml penicillin, 100 μg/ml streptomycin, 2 mM L-glutamine and 20 ng/ml MCSF (PeproTech). Primary cultures of macrophage were then plated at 1.2×10^5 cells per well (3-4 wells for each condition) in 24-well tissue-culture plates on glass cover-slips overnight. […] The fluorescent signal and its total area were determined and quantified by the conversion of individual images to greyscale and standardizing to baseline using histogram-based thresholds with NIH ImageJ software. […]
The expression of inducible nitric oxide synthase (iNOS), a hallmark of the proinflammatory M1 macrophage phenotype, in different treatment groups was assessed next (FIG. 16C-16D). […] Quantitative ICC assays confirmed a significant ˜1.3-fold increase in iNOS expression by minocycline-treated macrophages, and a substantial 48% reduction in Aβ^1-42 phagocytosis. […]

[3] = system: MMP-9; test: MMP-9 expression in macrophages by quantitative ICC; format: cell-based, mouse; conditions: quantitative ICC (FIG. 16F-16G)
Description: as §1, with “overnight. Next, macrophages were either treated with 30 μg/ml GA (Copaxone®; TEVA Neuroscience), Brefeldin A (BFA; Sigma, 1X), or 10 μM Minocycline (Sigma) for the duration of 1, 3, or 24 h, or not treated (control group).” for “overnight.”
Next, MMP-9 expression and OPN proteolytic fragments were analyzed. […]

[4] = system: OPN; test: Western blot of OPN and its MMP-cleaved fragments in macrophages; format: cell-based, mouse; conditions: Western blot band density (FIG. 16I-16J)
Description: MΦ^BM were lifted from each cell by 2 mM EDTA-PBS, collected in an Eppendorf tube, and centrifuged. Cell pellets were lysed in RIPA buffer (Thermo Scientific) and supplemented with a cocktail of protease inhibitors (Thermo Scientific). Protein concentration was determined using a BCA Protein Assay Kit (Thermo Scientific). Aliquots of protein samples were electrophoretically separated using 4-12% Bis-Tris gels (Invitrogen), then transferred to nitrocellulose membranes, blocked in Tris-buffered saline (TBS) containing 5% (w/v) non-fat dry milk, and hybridized with appropriate primary antibodies, including rabbit polyclonal OPN (Abcam), goat polyclonal OPN (R&D systems), and Actin (Abcam). Membranes were then incubated with the appropriate HRP-conjugated secondary antibody prior to development with chemiluminescent substrates. Densitometric analysis of blots was conducted using ImageJ software, and each experimental sample was normalized to Actin.
Next, MMP-9 expression and OPN proteolytic fragments were analyzed. […] OPN is a known substrate for MMPs (including MMP-9). A detailed analysis of OPN expression in macrophages was performed using a polyclonal antibody recognizing full-length OPN and its MMP-cleaved fragments, including the 32 kD form. […] Remarkably, the MMP-generated 32kD C-terminus-containing peptide was elevated 12-fold after GA treatment. […]

Substance: glatiramer acetate [GA]
- vascular cerebral amyloid angiopathy (CAA) burden [1]: decreases
- reduction of iNOS production [2]: 28%
- increase of MMP-9 expression in macrophages [3]: 2.7 fold
- elevation of MMP-generated 32kD C-terminus-containing OPN peptide [4]: 12 fold
